25 compounds from patent US8722901B2, “Carboxy oxazole or thiazole compounds as DGAT-1 inhibitors useful for the treatment of obesity” (Piramal Enterprises Limited, priority 2009, dated 2014) can be followed below.

The structures appear in SMILES notation.

This experiment deals with T1, hDGAT-1 (Homo sapiens, UniProt O75907).
T1 construct: host or cells: Sf9 insect cells (baculovirus); microsomal fraction
T1 sequence (O75907 1-488): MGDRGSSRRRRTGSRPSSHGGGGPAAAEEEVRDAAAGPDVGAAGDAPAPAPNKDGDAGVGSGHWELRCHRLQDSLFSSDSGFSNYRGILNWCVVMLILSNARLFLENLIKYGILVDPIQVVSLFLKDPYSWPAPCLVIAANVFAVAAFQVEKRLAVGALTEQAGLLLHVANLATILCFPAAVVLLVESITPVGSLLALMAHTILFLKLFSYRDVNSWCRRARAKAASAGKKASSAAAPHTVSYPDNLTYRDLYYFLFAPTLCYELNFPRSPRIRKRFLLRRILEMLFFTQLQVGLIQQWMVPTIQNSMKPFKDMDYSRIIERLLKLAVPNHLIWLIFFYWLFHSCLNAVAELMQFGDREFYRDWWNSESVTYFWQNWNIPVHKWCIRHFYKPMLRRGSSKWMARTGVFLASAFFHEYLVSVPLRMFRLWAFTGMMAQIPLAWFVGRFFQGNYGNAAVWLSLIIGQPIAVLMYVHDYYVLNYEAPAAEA
Nature of the experiment: In-vitro DGAT-1 assay (14C oleoyl CoA, microsomes from Sf9 cells). Format: biochemical. The settings on record: 1 μM compound; hDGAT-1 containing microsomes from Sf9 cells. Here is the method: In-Vitro Protocol for DGAT-1 Assay
Sf9 Culture and Treatment
Sf9 cells were grown in T25 flasks containing Graces's Insect media (Invitrogen, US) with 10% FBS (Hyclone, US) with antibiotic (100 units/mL penicillin, 100 μg/mL streptomycin sulphate, 0.25 μg/mL amphotericin B as Fungizone) grown in a 27° C. incubator.
hDGAT-10RF expression clone (RZPDo839C09146 in pDEST vector) was obtained from RZPD, Germany. hDGAT-1 bacmid DNA was obtained by transformation of the hDGAT expression clone into DH10Bac E. coli competent cells. Approximately 1 μg of hDGAT-1 bacmid DNA was infected into Sf9 cells with Cellfectin (Invitrogen, US) reagent. Following infection, Sf9 cells were incubated at 27° C. for 30 minutes. Five hours after infection, the media was replaced with growth media containing antibiotic (100 units/mL penicillin, 100 μg/mL streptomycin sulphate, 0.25 μg/mL amphotericin B as Fungizone) and incubated at 27° C. for 72 hours. The supernatant containing the virus was centrifuged at 1500 g for 5 minutes, passed through 0.22 μm filter, and subsequently stored at 4° C. The virus was further amplified three more times by re-infection of Sf9 cells and the viral titer was determined by plaque assay.
Preparation of DGAT-1 Microsomes from Sf9 Cells
Sf9 cells were seeded in spinner flasks on day 0 at a cell density of 1×10^6 and infected on day 1 with hDGAT-1 baculovirus at a multiplicity of infection (MOI) of 5 and a cell density of 2×10^6. On day 3 (or 66-72 hours), cells were harvested and centrifuged at 2500 g for 10 minutes. Pellet was resuspended in lysis buffer (100 mM sucrose, 50 mM KCl, 40 mM KH2PO4, 30 mM EDTA, pH 7.2) and passed through 21-gauge needle approximately 10 times. […] The supernatant was subjected to centrifugation at 35,000 rpm in a Beckman Ti-45 rotor at 4° C. for 1 hour. The resultant pellet containing the microsomes were resuspended overnight in 1 mL of lysis buffer and total protein concentration was estimated using Bradford Reagent (Sigma, US). Microsomes were aliquoted and stored at −80° C.
Measurement of DGAT-1 Activity
Frozen aliquots of hDGAT-1 containing microsomes were thawed (5-10 mg/mL total protein) on ice and diluted to a working stock of 1 mg/mL with DGAT Assay Buffer (DAB).
The assay was performed in duplicates in a reaction volume of 100 μL. […] Procedure:
The reaction was started by the addition of […] of 1 mg/mL of microsomes (iv) to the mixture and incubated at 37° C. for 10 minutes. […] The mixture was vortexed and the triglycerides formed were extracted into the organic heptane phase.
On to `CCCCCc1ccc(C(=O)Nc2ccc(-c3cnc(C(=O)N(C)C(C(=O)O)C(C)C)s3)cc2)cc1` (stereo not shown) [Example 40, 3-Methyl-2-(N-methyl-5-(4-(4-pentylbenzamido)phenyl)thiazole-2-carboxamido)butanoic acid], for which the inhibition (commonly the share of the control response that was lost under treatment) at 1 µM fell in the range of 50 to 100%. Regarding `CC(C)C(C(=O)O)N(C)C(=O)c1ncc(-c2ccc(NC(=O)c3ccc(-c4ccccc4)cc3)cc2)s1` (stereo not shown) [Example 42, 2-(5-(4-Biphenyl-4-ylcarboxamidophenyl)-N-methylthiazole-2-carboxamido)-3-methylbutanoic acid], the “% inhibition of hDGAT-1 at 1 μM” value is “++ (>50% Inhibition ≦100)”. `CC(C)C(NC(=O)c1nc(-c2ccc(NC(=O)Nc3ccccc3Cl)cc2)cs1)C(=O)O` (stereo not shown) [Example 24, 2-(4-(4-(3-(2-Chlorophenyl)ureido)phenyl)thiazole-2-carboxamido)-3-methylbutanoic acid] yielded an inhibition at 1 µM of 0 to 50%.

Turning to `CC(C)[C@H](NC(=O)c1ncc(-c2ccc(NC(=O)Nc3ccc4c(c3)CCC4)cc2)o1)C(=O)O` [Example 56, (S)-2-(5-(4-(3-(2,3-dihydro-1H-inden-5-yl)ureido)phenyl)oxazole-2-carboxamido)-3-methylbutanoic acid], the inhibition at 1 µM is 50 to 100%. Regarding `CC(C)C(NC(=O)c1nc(-c2ccc(NC(=O)Nc3ccc(Cl)cc3Oc3ccccc3)cc2)cs1)C(=O)O` (stereo not shown) [Example 34, 2-(4-(4-(3-(4-chloro-2-phenoxyphenyl)ureido)phenyl)thiazole-2-carboxamido)-3-methylbutanoic acid], the inhibition at 1 µM lay within 0 to 50%. In turn, `CC(C)[C@H](NC(=O)c1ncc(-c2ccc(NC(=O)Nc3ccc(C(F)(F)F)cc3Cl)cc2)o1)C(=O)O` [Example 62, (S)-2-(5-(4-(3-(2-chloro-4-(trifluoromethyl)phenyl)ureido)phenyl)oxazole-2-carboxamido)-3-methylbutanoic acid] showed an inhibition at 1 µM of 50 to 100%. Regarding `CC(C)C(NC(=O)c1ncc(-c2ccc(NC(=O)C3Cc4ccccc4C3)cc2)s1)C(=O)O` (stereo not shown) [Example 52, 2-(5-(4-(2,3-dihydro-1H-indene-2-carboxamido)phenyl)thiazole-2-carboxamido)-3-methylbutanoic acid], the inhibition at 1 µM was 50 to 100%. As to `CCCCCc1ccc(C(=O)Nc2ccc(-c3csc(C(=O)NC(C(=O)O)C(C)C)n3)cc2)cc1` (stereo not shown) [Example 38, 3-Methyl-2-(4-(4-(4-pentylbenzamido)phenyl)thiazole-2-carboxamido) butanoic acid], the inhibition at 1 µM fell in the range of 0 to 50%. Turning to `CC(C)[C@H](NC(=O)c1ncc(-c2ccc(NC(=O)Nc3ccc(C(F)(F)F)cc3Cl)cc2)s1)C(=O)O` [Example 72, (S)-2-(5-(4-(3-(2-chloro-4-(trifluoromethyl)phenyl)ureido)phenyl)thiazole-2-carboxamido)-3-methylbutanoic acid], the inhibition at 1 µM is 50 to 100%. `CC(C)C(NC(=O)c1ncc(-c2ccc(NC(=O)c3ccc(-c4ccccc4)cc3)cc2)s1)C(=O)O` (stereo not shown) [Example 48, 2-(5-(4-biphenyl-4-ylcarboxamidophenyl)thiazole-2-carboxamido)-3-methylbutanoic acid]: the “% inhibition of hDGAT-1 at 1 μM” value is on record as “++ (>50% Inhibition ≦100)”. Consider `CC(C)C(NC(=O)c1nc(-c2ccc(NC(=O)c3ccc(-c4ccccc4)cc3)cc2)cs1)C(=O)O` (stereo not shown) [Example 36, 2-(4-(4-Biphenyl-4-ylcarboxamidophenyl)thiazole-2-carboxamido)-3-methylbutanoic acid], for which the “% inhibition of hDGAT-1 at 1 μM” value is listed as “+ (>0% Inhibition ≦50)”. `CC(C)C(NC(=O)c1nc(-c2ccc(NS(=O)(=O)c3ccc(Cl)cc3Cl)cc2)cs1)C(=O)O` (stereo not shown) [Example 46, 2-(4-(4-(2,4-Dichlorophenylsulfonamido)phenyl)thiazole-2-carboxamido)-3-methylbutanoic acid] displayed an inhibition at 1 µM of 0 to 50%. As to `CC(C)[C@H](NC(=O)c1ncc(-c2ccc(NC(=O)Nc3ccc(Cl)cc3)cc2)s1)C(=O)O` [Example 68, (S)-2-(5-(4-(3-(4-chlorophenyl)ureido)phenyl)thiazole-2-carboxamido)-3-methylbutanoic acid], the inhibition at 1 µM was in the range of 50 to 100%. The same measure, in the same setting: in the case of `CC(C)[C@H](NC(=O)c1ncc(-c2ccc(NC(=O)Nc3cccc(Cl)c3)cc2)s1)C(=O)O` [Example 70, (S)-2-(5-(4-(3-(3-chlorophenyl)ureido)phenyl)thiazole-2-carboxamido)-3-methylbutanoic acid] it was 50 to 100%; in that of `CC(C)C(C(=O)O)N(C)C(=O)c1ncc(-c2ccc(NC(=O)c3ccc(C(C)(C)C)cc3)cc2)s1` (stereo not shown) [Example 44, 2-(5-(4-(4-tert-Butylbenzamido)phenyl)-N-methylthiazole-2-carboxamido)-3-methylbutanoic acid], 50 to 100%; in that of `CC(C)C(NC(=O)c1ncc(-c2ccc(NC(=O)Nc3cccc(C(F)(F)F)c3)cc2)o1)C(=O)O` (stereo not shown) [Example 2, 3-Methyl-2-(5-(4-(3-(3-(trifluoromethyl)phenyl)ureido)phenyl)oxazole-2-carboxamido)butanoic acid], 50 to 100%. In turn, `CC(C)C(NC(=O)c1nc(-c2ccc(NC(=O)Nc3ccc(C(F)(F)F)cc3)cc2)cs1)C(=O)O` (stereo not shown) [Example 30, 3-methyl-2-(4-(4-(3-(4-(trifluoromethyl)phenyl)ureido)phenyl)thiazole-2-carboxamido)butanoic acid] returned an inhibition at 1 µM of 0 to 50%. With `CC(C)[C@H](NC(=O)c1ncc(-c2ccc(NC(=O)Nc3ccc(Cl)cc3F)cc2)s1)C(=O)O` [Example 74, (S)-2-(5-(4-(3-(4-chloro-2-fluorophenyl)ureido)phenyl)thiazole-2-carboxamido)-3-methylbutanoic acid], the inhibition at 1 µM was in the range of 50 to 100%. For the compound `CC(C)C(NC(=O)c1ncc(-c2ccc(NC(=O)Nc3ccc(Cl)cc3Oc3ccccc3)cc2)o1)C(=O)O` (stereo not shown) [Example 8, 2-(5-(4-(3-(4-chloro-2-phenoxyphenyl)ureido)phenyl)oxazole-2-carboxamido)-3-methylbutanoic acid], the inhibition at 1 µM lay in the range of 50 to 100%.

The compound `Cc1ccc(NC(=O)Nc2ccc(-c3cnc(C(=O)NC(C(=O)O)C(C)C)o3)cc2)cc1C` (stereo not shown) [Example 6, 2-(5-(4-(3-(3,4-dimethylphenyl)ureido)phenyl)oxazole-2-carboxamido)-3-methylbutanoic acid] had an inhibition at 1 µM of 50 to 100%. As to `Cc1ccc(NC(=O)Nc2ccc(-c3csc(C(=O)NC(C(=O)O)C(C)C)n3)cc2)cc1C` (stereo not shown) [Example 32, 2-(4-(4-(3-(3,4-Dimethylphenyl)ureido)phenyl)thiazole-2-carboxamido)-3-methylbutanoic acid], the inhibition at 1 µM is 0 to 50%. Regarding `CC(C)[C@H](NC(=O)c1ncc(-c2ccc(NC(=O)Nc3ccc(Cl)cc3)cc2)o1)C(=O)O` [Example 58, (S)-2-(5-(4-(3-(4-chlorophenyl)ureido)phenyl)oxazole-2-carboxamido)-3-methylbutanoic acid], the inhibition at 1 µM lay in the range of 50 to 100%. `CC(C)C(NC(=O)c1nc(-c2ccc(NC(=O)c3ccc(C(C)(C)C)cc3)cc2)cs1)C(=O)O` (stereo not shown) [Example 28, 2-(4-(4-(4-tert-butylbenzamido)phenyl)thiazole-2-carboxamido)-3-methylbutanoic acid] showed an inhibition at 1 µM of 0 to 50%.

For `CC(C)C(NC(=O)c1ncc(-c2ccc(NCc3ccc(F)cc3)cc2)s1)C(=O)O` (stereo not shown) [Example 91, 2-(5-(4-((4-Fluorobenzyl)amino)phenyl)thiazole-2-carboxamido)-3-methylbutanoic acid], the inhibition at 1 µM was 0 to 50%. In the case of `CC(C)C(NC(=O)c1ncc(-c2ccc(N(Cc3ccccc3)Cc3ccccc3)cc2)s1)C(=O)O` (stereo not shown) [Example 93, 2-(5-(4-(dibenzylamino)phenyl)thiazole-2-carboxamido)-3-methylbutanoic acid], the inhibition at 1 µM lay within 0 to 50%.
